Assay results: patent US9060970B2, “Bridge-helix cap: target and method for inhibition of bacterial RNA polymerase” (priority 2011, dated 2015)
“Also recorded” adds a separate entry of the source. Starred links: 1 amine or outer side, 2 acyl side, 3 side chain; linkers in the order of their positions; H or OH if unused. Positions of bridges follow the written chain, without caps; N, C: chain ends. Non-standard residues stand in square brackets, D forms with d. Residues, ends and D or L forms follow the SMILES beside them. *: point of attachment. X2 = C[C@H](Oc1ccc([C@H](N[*:1])C(=O)[*:2])cc1)[C@@]1(/C=C/C(=O)[*:3])CO1; X1 = CC(C)[C@H](O)[C@H](C)C(=O)*; aIle = CC[C@@H](C)[C@H](N)C(=O)O; dNMeF = CN[C@H](Cc1ccccc1)C(=O)O; aThr = C[C@H](O)[C@H](N)C(=O)O

Columns and labels:
Type in all cases: cell-based, Escherichia coli
[1] = test system: RNA synthesis in E. coli D21f2tolC; experiment: RNA synthesis in vivo ([14C]-uracil incorporation, macromolecular synthesis assay); details: Sal at two times MIC; 5, 10, 15 min after addition; effect seen at earliest time point (5 min)
Protocol: (§1) Sal Inhibits RNA Synthesis in vivo. To determine whether Sal inhibits RNAP in vivo, effects of Sal on RNA synthesis in vivo were assayed, and, as a control, effects of Sal on DNA synthesis in vivo were assayed. Sal was added to cultures of E. coli D21f2tolC growing in media containing either a radioactively labeled RNA-synthesis precursor ([^14C]-uracil) or a radioactively labeled DNA synthesis precursor ([^14C]-thymidine); aliquots were removed and mixed with trichloroacetic acid (TCA) 0, 5, 10, and 15 min thereafter to lyse cells and precipitate nucleic acids; TCA-precipitated nucleic acids were collected by vacuum filtration; and radioactivity in TCA-precipitated nucleic acids was quantified (FIG. 2A). […] The effect was specific; addition of Sal to bacterial cultures had no effect on DNA synthesis (FIG. 2B, right panel). It is concluded that Sal inhibits RNA synthesis in vivo, and it is inferred that Sal inhibits RNAP in vivo.
(§2) Measurement of Nucleic Acid Synthesis in vivo. Macromolecular synthesis assays were performed essentially as in reference 5. […] Radioactivity was quantified using a Typhoon Variable Mode Imager and ImageQuant v5 (Molecular Dynamics, Inc.).

[2] = test system: DNA synthesis in E. coli D21f2tolC; experiment: DNA synthesis in vivo ([14C]-thymidine incorporation, macromolecular synthesis assay); details: Sal at two times MIC; 5, 10, 15 min after addition
Protocol: as §1, §2

E. coli D21f2tolC = experiment: Spontaneous resistance frequency by plating on LB agar containing inhibitor
Text: Sal-Resistant Mutants Map to RNAP-Subunit Genes. To determine whether Sal kills bacteria by inhibiting RNAP, spontaneous Sal-resistant mutants were isolated, and genes for RNAP subunits in Sal-resistant mutants were PCR-amplified and sequenced (FIG. 3A). Spontaneous Sal-resistant mutants were isolated by plating high-density cultures of E. coli D21f2tolC (˜3×10^9 cells per plate) on agar containing Sal and identifying rare resistant colonies (FIG. 3B). For each Sal-resistant mutant, genomic DNA was prepared, and the genes for the largest RNAP subunit and the second-largest RNAP subunit—rpoC encoding RNAP β′ subunit and rpoB encoding RNAP β subunit were PCR-amplified and sequenced (FIG. 3C).
Co-Administration of Sal and Rifampin Reduces Spontaneous Resistance to Undetectable Levels.
Co-Administration of Sal and CBR703 Reduces Spontaneous Resistance to Undetectable Levels.
Isolation of Sal-Resistant Mutants: Spontaneous Sal-Resistant Mutants. E. coli D21f2tolC (6) was cultured to saturation in 5 ml LB broth (7) at 37° C., cultures were centrifuged, and cell pellets (˜3×10^9 cells) were re-suspended in 50 μl LB broth and plated on LB agar (7) containing 1.2 μg/ml Sal (a concentration four times the minimal concentration required to prevent growth of wild-type cells under these conditions), and incubated 24-48 h at 37° C. Sal-resistant mutants were identified by the ability to form colonies on this medium and were confirmed by re-streaking on the same medium.

[3] = test system: D21f2tolC pRL663 and D21f2tolC pRL706 derivatives; experiment: Broth microdilution resistance levels of induced Sal-resistant mutants (plasmid-borne rpoC / rpoB); details: for resistance level (MIC/MICwild-type): induced mutant
Protocol: Isolation of Sal-Resistant Mutants: Induced Sal-Resistant Mutants. E. coli Random mutagenesis of rpoC in plasmid pRL663 and rpoB in plasmid pRL706 was performed as in 24, mutagenenized plasmids were passaged in E. coli XL1-Blue (Stratgene, Inc.) as in 24, mutagenized plasmids were introduced by transformation into E. coli D21f2tolC as in 24, and transformants (˜1×10^4 cells) were applied to LB-agar plates containing 1 μg/ml Sal, 200 μg/ml ampicillin, and 1 mM IPTG, and plates were incubated 16-24 h at 37° C. Sal-resistant mutants were identified by the ability to form colonies on this medium and were confirmed by re-streaking on the same medium.
Quantitation of Resistance to Sal. Resistance to Sal was quantified by performing broth microdilution assays. Single colonies were inoculated into 3 ml LB broth, and incubated 3-6 h at 37° C. with shaking. Diluted aliquots (2×10^4 cells in 98 μl LB broth; concentrations determined using OD600=1 for 10^9 cells) were dispensed into wells of a 96-well plate, were supplemented with 2 μl of a 2-fold dilution series of Sal in methanol (final concentrations of […], 0.390, 0.195, 0.0975, 0.0488, 0.0244, 0.0122, and 0.00609 μg/ml) or 2 μl of a solvent blank, and were incubated 16 h at 37° C. with shaking. The minimum inhibitory concentration (MIC) was defined as the lowest tested concentration of Sal that inhibited bacterial growth by 95%.

[4] = test system: Derivatives of E. coli D21f2tolC containing rifamycin-resistant rpoB mutations; experiment: Broth microdilution cross-resistance of rifamycin-resistant mutants to Sal

CC[C@@H](C)[C@@H]1NC(=O)[C@H](NC(=O)[C@@H](C)[C@@H](O)C(C)C)[C@H](C)OC(=O)[C@H]2COC(=O)CNC(=O)/C=C/[C@@]3(CO3)[C@H](C)Oc3ccc(cc3)[C@H](NC1=O)C(=O)N(C)[C@H](Cc1ccccc1)C(=O)N[C@@H]([C@H](C)O)C(=O)N2 [Sal, salinamide A] (X1-[dT][aIle][X2][dNMeF][aThr][dS]; ester 1-C; linker 3-6 via G)
effect on RNA synthesis in vivo [1]: decreased immediately; also recorded: essentially stopped | effect on DNA synthesis in vivo [2]: no effect | spontaneous resistance frequency (E. coli D21f2tolC; LB agar, each compound at 4×MIC, colonies counted after 24 h at 37° C.): 4×10^−9 | frequency of spontaneous mutation to Sal-resistance (E. coli D21f2tolC; ~3×10^9 cells per plate, LB agar with 1.2 μg/ml Sal, 24-48 h at 37° C.): ~4 × 10^−9 | MIC with wild-type rpoC and wild-type rpoB ([3]; D21f2tolC pRL663 and D21f2tolC pRL706 derivatives, wild-type plasmid genes): ^aAssayed as D21f2tolC pRL663 and D21f2tolC pRL706 derivatives; MIC with wild-type rpoC and wild-type rpoB was 0.098 μg/ml. | resistance level (MIC/MICwild-type) ([3]; rpoB (RNAP β subunit) 561 Ile→Ser): 2 | resistance level (MIC/MICwild-type) ([3]; rpoB (RNAP β subunit) 665 Ala→Glu): 8 | resistance level (MIC/MICwild-type) ([3]; rpoB (RNAP β subunit) 680 Leu→Met): 4 | resistance level (MIC/MICwild-type) ([3]; rpoC (RNAP β′ subunit) 758 Pro→Thr): 4 | resistance level (MIC/MICwild-type) ([3]; rpoC (RNAP β′ subunit) 780 Arg→Cys): 8 | resistance level (MIC/MICwild-type) ([3]; rpoC (RNAP β′ subunit) 782 Gly→Cys): 8 | cross-resistance level (MIC/MICwild-type) ([4]; rifampin-resistant mutant rpoB (RNAP β subunit) 516 Asp→Val): 1 | cross-resistance level (MIC/MICwild-type) ([4]; rifampin-resistant mutant rpoB (RNAP β subunit) 526 His→Asp): 1 | cross-resistance level (MIC/MICwild-type) ([4]; rifampin-resistant mutant rpoB (RNAP β subunit) 526 His→Tyr): 1 | cross-resistance level (MIC/MICwild-type) ([4]; rifampin-resistant mutant rpoB (RNAP β subunit) 531 Ser→Leu): 1 | cross-resistance of rifamycin-resistant mutants (in words) ([4]; β Asp516→Val, His526→Asp, His526→Tyr, Ser531→Leu mutants (Table 5)): not cross-resistant; also recorded: no cross-resistance
